Drawing on patent US20120264735A1 (priority 2009, published 2012), this text covers IC50 for 29 compounds.

Where only a bound is given, the exact number is not on record here.

T1 sequence (P08581 25-1390): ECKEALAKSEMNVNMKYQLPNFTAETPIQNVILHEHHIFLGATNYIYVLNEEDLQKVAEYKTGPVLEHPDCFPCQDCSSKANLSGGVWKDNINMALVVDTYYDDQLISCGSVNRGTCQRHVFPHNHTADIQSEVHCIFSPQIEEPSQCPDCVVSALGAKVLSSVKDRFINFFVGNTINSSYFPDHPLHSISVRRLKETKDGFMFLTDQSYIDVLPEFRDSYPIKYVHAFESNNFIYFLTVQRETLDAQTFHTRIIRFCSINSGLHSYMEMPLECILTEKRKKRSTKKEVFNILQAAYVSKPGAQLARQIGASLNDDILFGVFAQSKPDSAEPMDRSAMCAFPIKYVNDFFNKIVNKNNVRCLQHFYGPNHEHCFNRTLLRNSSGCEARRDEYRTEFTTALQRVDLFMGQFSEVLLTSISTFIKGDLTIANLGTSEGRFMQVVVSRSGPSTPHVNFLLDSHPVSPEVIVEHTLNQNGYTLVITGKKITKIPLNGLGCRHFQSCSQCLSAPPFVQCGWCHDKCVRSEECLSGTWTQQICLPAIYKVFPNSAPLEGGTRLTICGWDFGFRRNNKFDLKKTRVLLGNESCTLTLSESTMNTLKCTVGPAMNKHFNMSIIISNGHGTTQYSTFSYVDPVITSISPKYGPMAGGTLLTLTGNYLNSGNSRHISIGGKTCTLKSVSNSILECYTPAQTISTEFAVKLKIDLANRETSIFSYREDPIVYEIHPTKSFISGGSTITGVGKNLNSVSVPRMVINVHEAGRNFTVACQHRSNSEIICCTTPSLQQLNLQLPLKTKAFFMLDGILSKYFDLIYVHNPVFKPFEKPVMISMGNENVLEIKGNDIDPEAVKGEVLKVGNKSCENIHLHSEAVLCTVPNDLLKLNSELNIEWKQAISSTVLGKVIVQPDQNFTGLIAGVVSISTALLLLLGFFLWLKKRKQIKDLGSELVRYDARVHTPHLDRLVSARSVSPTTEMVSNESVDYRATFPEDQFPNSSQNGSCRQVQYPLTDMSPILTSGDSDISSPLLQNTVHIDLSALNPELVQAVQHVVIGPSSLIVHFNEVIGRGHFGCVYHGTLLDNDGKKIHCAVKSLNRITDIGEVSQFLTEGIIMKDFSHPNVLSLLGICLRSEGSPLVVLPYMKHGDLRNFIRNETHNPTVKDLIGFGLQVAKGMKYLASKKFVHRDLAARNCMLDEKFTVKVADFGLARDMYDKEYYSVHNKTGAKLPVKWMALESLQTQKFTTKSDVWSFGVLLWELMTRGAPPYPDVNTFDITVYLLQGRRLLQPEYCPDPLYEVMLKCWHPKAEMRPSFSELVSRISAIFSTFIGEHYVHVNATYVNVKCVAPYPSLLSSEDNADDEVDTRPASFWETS

This assay concerns the target T1, c-Met kinase (recombinant c-Met) (Homo sapiens, UniProt P08581).
T1 construct: 0.27 nM recombinant c-Met
As to the kind of experiment: In vitro kinase assay I (homogeneous time-resolved fluorescence tyrosine kinase assay). The assay is classed as biochemical. In a few lines: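 Biotinylated peptide (0.5 μM) phosphorylated by 0.2 nM recombinant c-Met with 50 μM MgATP, 60 min at room temperature, pH 7.4, 5% DMSO. EDTA stop; HTRF read with Eu-anti-phosphotyrosine antibody and streptavidin-APC. IC50 from 4-parameter logistic fit.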
With `CC(c1cccc(-c2ncc(OC(C)C(C)(C)O)cn2)c1)c1nn(-c2cnn(C)c2)ccc1=O` (single isomer, unassigned) [Example 383, 3-{(1R or S)-1-[3-(5-{[(1R or S)-2-hydroxy-1,2-dimethylpropyl]oxy}pyrimidin-2-yl)phenyl]ethyl}-1-(1-methyl-1H-pyrazol-4-yl)pyridazin-4(1H)-one], the IC50 is under 0.1 µM.

Consider `CC(c1cccc(-c2ncc(OC(C)C(C)(C)O)cn2)c1)c1nn(-c2cnn(C)c2)ccc1=O` (single isomer, unassigned) [Example 384, 3-{(1R or S)-1-[3-(5-{[(1R or S)-2-hydroxy-1,2-dimethylpropyl]oxy}pyrimidin-2-yl)phenyl]ethyl}-1-(1-methyl-1H-pyrazol-4-yl)pyridazin-4(1H)-one], for which the IC50 was under 0.1 µM.

On to `CC(c1cccc(-c2ncc(OC(C)C(C)(C)O)cn2)c1)c1nn(-c2cnn(C)c2)ccc1=O` (single isomer, unassigned) [Example 385, 3-{(1R or S)-1-[3-(5-{[(1R or S)-2-hydroxy-1,2-dimethylpropyl]oxy}pyrimidin-2-yl)phenyl]ethyl}-1-(1-methyl-1H-pyrazol-4-yl)pyridazin-4(1H)-one], for which the half-maximal inhibitory concentration (IC50) is under 0.1 µM.

Regarding `CC(c1cccc(-c2ncc(C3CC3)cn2)c1)c1nn(-c2cnn(C)c2)ccc1=O` (single isomer, unassigned) [Example 405, 3-{(1S or R)-1-[3-(5-cyclopropyl-pyrimidin-2-yl)phenyl]ethyl}-1-(1-methyl-1H-pyrazol-4-yl)pyridazin-4(1H)-one], the IC50 is under 0.1 µM.

In the case of `CC(c1cccc(-c2ncc(C3CC3)cn2)c1)c1nn(-c2cnn(C)c2)ccc1=O` (single isomer, unassigned) [Example 406, 3-{(1R or S)-1-[3-(5-cyclopropyl-pyrimidin-2-yl)phenyl]ethyl}-1-(1-methyl-1H-pyrazol-4-yl)pyridazin-4(1H)-one], the IC50 is under 0.1 µM.

Regarding `CC1CCC(=O)N1[C@@H](C)COC(=O)Nc1cccc(Cc2nn(-c3cnn(C)c3)ccc2=O)c1` (single isomer, unassigned) [Example 610, (2S)-2-[(2R or S)-2-methyl-5-oxopyrrolidin-1-yl]propyl (3-{[1-(1-methyl-1H-pyrazol-4-yl)-4-oxo-1,4-dihydropyridazin-3-yl]methyl}phenyl)carbamate], the IC50 is under 0.1 µM.

`COCCOC(=O)Nc1cccc(C(C)c2nn(-c3cnn(C)c3)ccc2=O)c1` (single isomer, unassigned) [Example 652, 2-methoxyethyl (3-{(1S or R)-1-[1-(1-methyl-1H-pyrazol-4-yl)-4-oxo-1,4-dihydropyridazin-3-yl]ethyl}phenyl)carbamate]: the IC50 is under 0.1 µM.

Regarding `COCCOC(=O)Nc1cccc(C(C)c2nn(-c3cnn(C)c3)ccc2=O)c1` (single isomer, unassigned) [Example 653, 2-methoxyethyl (3-{(1R or S)-1-[1-(1-methyl-1H-pyrazol-4-yl)-4-oxo-1,4-dihydropyridazin-3-yl]ethyl}phenyl)carbamate], the IC50 fell in the range of 0.1 to 1 µM.

As for `CCOc1cnc(-c2cccc(C(F)c3nn(-c4cnn(C)c4)ccc3=O)c2)nc1` (single isomer, unassigned) [Example 655, 3-[(S or R)-[3-(5-ethoxypyrimidin-2-yl)phenyl](fluoro)methyl]-1-(1-methyl-1H-pyrazol-4-yl)pyridazin-4(1H)-one], the IC50 was in the range of 0.1 to 1 µM.

`CCOc1cnc(-c2cccc(C(F)c3nn(-c4cnn(C)c4)ccc3=O)c2)nc1` (single isomer, unassigned) [Example 656, 3-[(R or S)-[3-(5-ethoxypyrimidin-2-yl)phenyl](fluoro)methyl]-1-(1-methyl-1H-pyrazol-4-yl)pyridazin-4(1H)-one]: the IC50 is under 0.1 µM.

Consider `CCn1cnc(-c2cccc(C(C)c3nn(-c4cnn(C)c4)ccc3=O)c2)n1` (single isomer, unassigned) [Example 680, 3-{(1S or R)-1-[3-(1-ethyl-1H-1,2,4-triazol-3-yl)phenyl]ethyl}-1-(1-methyl-1H-pyrazol-4-yl)pyridazin-4(1H)-one], for which the IC50 was 0.1 to 1 µM.

For the compound `CCn1cnc(-c2cccc(C(C)c3nn(-c4cnn(C)c4)ccc3=O)c2)n1` (single isomer, unassigned) [Example 681, 3-{(1R or S)-1-[3-(1-ethyl-1H-1,2,4-triazol-3-yl)phenyl]ethyl}-1-(1-methyl-1H-pyrazol-4-yl)pyridazin-4(1H)-one], the IC50 was under 0.1 µM.

As for `CC(c1cccc(-c2ncn(C)n2)c1)c1nn(-c2cnn(C)c2)ccc1=O` (single isomer, unassigned) [Example 682, 1-(1-methyl-1H-pyrazol-4-yl)-3-{(1S or R)-1-[3-(1-methyl-1H-1,2,4-triazol-3-yl)phenyl]ethyl} pyridazin-4(1H)-one], the IC50 lay within 1 to 3 µM.

On to `CC(c1cccc(-c2ncn(C)n2)c1)c1nn(-c2cnn(C)c2)ccc1=O` (single isomer, unassigned) [Example 683, 1-(1-methyl-1H-pyrazol-4-yl)-3-{(1R or S)-1-[3-(1-methyl-1H-1,2,4-triazol-3-yl)phenyl]ethyl} pyridazin-4(1H)-one], for which the IC50 was under 0.1 µM.

In the case of `CCCn1cnc(-c2cccc(C(C)c3nn(-c4cnn(C)c4)ccc3=O)c2)n1` (single isomer, unassigned) [Example 684, 1-(1-methyl-1H-pyrazol-4-yl)-3-{(1S or R)-1-[3-(1-propyl-1H-1,2,4-triazol-3-yl)phenyl]ethyl} pyridazin-4(1H)-one], the IC50 is 1 to 3 µM.

Consider `CCCn1cnc(-c2cccc(C(C)c3nn(-c4cnn(C)c4)ccc3=O)c2)n1` (single isomer, unassigned) [Example 685, 1-(1-methyl-1H-pyrazol-4-yl)-3-{(1R or S)-1-[3-(1-propyl-1H-1,2,4-triazol-3-yl)phenyl]ethyl} pyridazin-4(1H)-one], for which the IC50 is under 0.1 µM.

Consider `CCn1cc(-n2ccc(=O)c(C(C)c3cccc(-c4ncn(CC)n4)c3)n2)cn1` (single isomer, unassigned) [Example 686, 1-(1-ethyl-1H-pyrazol-4-yl)-3-{(1S or R)-1-[3-(1-ethyl-1H-1,2,4-triazol-3-yl)phenyl]ethyl} pyridazin-4(1H)-one], for which the IC50 is 0.1 to 1 µM.

Turning to `CCn1cc(-n2ccc(=O)c(C(C)c3cccc(-c4ncn(CC)n4)c3)n2)cn1` (single isomer, unassigned) [Example 687, 1-(1-ethyl-1H-pyrazol-4-yl)-3-{(1R or S)-1-[3-(1-ethyl-1H-1,2,4-triazol-3-yl)phenyl]ethyl} pyridazin-4(1H)-one], the IC50 was under 0.1 µM.

In the case of `CCCn1cnc(-c2cccc(C(C)c3nn(-c4cnn(CC)c4)ccc3=O)c2)n1` (single isomer, unassigned) [Example 688, 1-(1-ethyl-1H-pyrazol-4-yl)-3-{(1S or R)-1-[3-(1-propyl-1H-1,2,4-triazol-3-yl)phenyl]ethyl} pyridazin-4(1H)-one], the IC50 lay in the range of 0.1 to 1 µM.

In the case of `CCCn1cnc(-c2cccc(C(C)c3nn(-c4cnn(CC)c4)ccc3=O)c2)n1` (single isomer, unassigned) [Example 689], the IC50 was under 0.1 µM.

With `CC(c1cccc(-c2nccc(C(F)F)n2)c1)c1nn(-c2cnn(C)c2)ccc1=O` (single isomer, unassigned) [Example 690, 3-[(1R or S)-1-{3-[4-(Difluoromethyl)pyrimidin-2-yl]phenyl}ethyl]-1-(1-methyl-1H-pyrazol-4-yl)pyridazin-4(1H)-one], the IC50 is under 0.1 µM.

`Cc1ccnc(-c2cccc(C(C)c3nn(-c4cnn(C)c4)ccc3=O)c2)n1` (single isomer, unassigned) [Example 691, 1-(1-methyl-1H-pyrazol-4-yl)-3-{(1R or S)-1-[3-(4-methylpyrimidin-2-yl)phenyl]ethyl} pyridazin-4(1H)-one]: the IC50 was under 0.1 µM.

On to `CC(c1cccc(-c2ncc(F)c(C3CC3)n2)c1)c1nn(-c2cnn(C)c2)ccc1=O` (single isomer, unassigned) [Example 692, 3-{(1R or S)-1-[3-(4-cyclopropyl-5-fluoropyrimidin-2-yl)phenyl]ethyl}-1-(1-methyl-1H-pyrazol-4-yl)pyridazin-4(1H)-one], for which the IC50 is under 0.1 µM.

For the compound `Cc1nc(-c2cccc(C(C)c3nn(-c4cnn(C)c4)ccc3=O)c2)ncc1F` (single isomer, unassigned) [Example 693, 3-{(1R or S)-1-[3-(5-fluoro-4-methylpyrimidin-2-yl)phenyl]ethyl}-1}-1-(1-methyl-1H-pyrazol-4-yl)pyridazin-4(1H)-one], the concentration for half-maximal inhibition (IC50) lay in the range of 0.1 to 1 µM.

For `CC(c1cccc(-c2nccc(C(C)(C)O)n2)c1)c1nn(-c2cnn(C)c2)ccc1=O` (single isomer, unassigned) [Example 694, 3-[(1R or S)-1-{3-[4-(2-hydroxypropan-2-yl)pyrimidin-2-yl]phenyl}ethyl]-1-(1-methyl-1H-pyrazol-4-yl)pyridazin-4(1H)-one], the IC50 lay within 0.1 to 1 µM.

As for `COCCNc1ccnc(-c2cccc(C(C)c3nn(-c4cnn(C)c4)ccc3=O)c2)n1` (single isomer, unassigned) [Example 695, 3-[(1R or S)-1-(3-{4-[(2-Methoxyethyl)amino]pyrimidin-2-yl}phenyl)ethyl]-1-(1-methyl-1H-pyrazol-4-yl)pyridazin-4(1H)-one], the IC50 is 0.1 to 1 µM.

With `CCOC(=O)Nc1cccc(Cc2nn(-c3cnn(C)c3)ccc2=O)c1` [Example 1, Ethyl(3-{[1-(1-methyl-1H-pyrazol-4-yl)-4-oxo-1,4-dihydropyridazin-3-yl]methyl}phenyl)carbamate], the IC50 is under 0.1 µM.

Consider `CCOC(=O)Nc1cccc(Cc2nn(-c3cc(F)c(F)c(F)c3)ccc2=O)c1` [Example 2, Ethyl(3-{[4-oxo-1-(3,4,5-trifluorophenyl)-1,4-dihydropyridazin-3-yl]methyl}phenyl)carbamate], for which the IC50 was under 0.1 µM.

As for `CCOc1cnc(-c2cccc(Cc3nn(-c4cnn(C)c4)ccc3=O)c2)nc1` [Example 3, 3-[3-(5-Ethoxypyrimidin-2-yl)benzyl]-1-(1-methyl-1H-pyrazol-4-yl)pyridazin-4(1H)-one], the IC50 was under 0.1 µM.
